US8431523B2, “Oligomeric biosurfactants in dermatocosmetic compositions” (priority 2006, dated 2013)
Non-standard residues stand in square brackets, D forms with d. Residues, ends and D or L forms follow the SMILES beside them. *: point of attachment. Myristoyl = CCCCCCCCCCCCCC(=O)*

How the values were obtained:
[1] = test system: fibroblast proliferation; assay: Cyquant Cell Proliferation Assay; assay type: cell-based
Experimental: For purposes of the present invention, proliferation is assessed using the Cyquant® Cell Proliferation Assay from Molecular Probes. This assay measures increased production of cellular nucleic acids that, in turn, results in increased binding of fluorescent dye.

[2] = test system: P. cepacia; assay: Minimum inhibitory concentration, P. cepacia; assay type: cell-based, Pseudomonas cepacia
Excerpt: By “antimicrobial” activity is meant the ability to inhibit the growth of at least one microbial organism selected from the group consisting E. coli, P. aeruginosa, S. aureus and C. albicans, as confirmed by optical density measurement (“OD”). By “inhibition of growth” is meant reduction or absence of an increase greater than 5% in OD, a dimensionless measure of turbidity that is proportional to the amount of microbial cells present in a sample. For illustrative purposes, a OAB according to the present invention is added to a culture plate on which E. coli is present at a final concentration of about 5×10^3 cfu/ml. The plate is then incubated at about 37° C. for about 24 hours at which time the E. coli is resuspended by shaking, and OD is measured at about 600 nm. Thus, a reduction or absence of an increase greater than 5% in OD confirms the antimicrobial nature of the OAB with respect to E. coli. Minimum inhibitory concentration (“MIC”) is a method well-known to those of skill in the art for expressing antimicrobial activity. A compound to be tested is serially diluted into growth medium, inoculated with culture and then incubated. The MIC is the lowest dilution of compound that inhibits or prevents growth of the target microorganism.

Structure (SMILES)	MIC(P. cepacia) [2] [ppm]	increase fibroblast proliferation (qualitative) [1]
CCCCCCCCCCCCCC(=O)N[C@@H](CCCCN)C(=O)N[C@@H](CC(C)C)C(=O)N[C@@H](C)C(=O)N[C@@H](CCCCN)C(=O)N[C@@H](CCCCN)C(=O)O [P351, Myr-KLAKK-acid] (Myristoyl-KLAKK-OH)	≤ 100	increase fibroblast proliferation
CCCCCCCCCCCCCC(=O)N[C@H](C(=O)N[C@@H](C)C(=O)N[C@@H](CCCCN)C(=O)N[C@@H](CCCCN)C(N)=O)[C@@H](C)CC [P371, Myr-IAKK-amide] (Myristoyl-IAKK-NH2)	≤ 100	increase fibroblast proliferation
CCCCCCCCCCCCCC(=O)N[C@@H](CCCCN)C(=O)N[C@@H](CCCCN)C(=O)N[C@@H](C)C(=O)N[C@@H](CC(C)C)C(N)=O [P291, Myr-KKAL-amide] (Myristoyl-KKAL-NH2)	≤ 100	increase fibroblast proliferation
CCCCCCCCCCCCCC(=O)N[C@@H](CCCCN)C(=O)N[C@@H](CCCCN)C(=O)NCC(=O)N[C@@H](CC(C)C)C(=O)N[C@H](CCCCN)C(N)=O [P394, Myr-KKGL-[K]^D-amide] (Myristoyl-KKGL[dK]-NH2)	≤ 100	increase fibroblast proliferation
CCCCCCCCCCCCCC(=O)N[C@@H](CCCCN)C(=O)N[C@@H](CCCCN)C(=O)N[C@@H](C)C(=O)N[C@@H](CC(C)C)C(=O)O [P362, Myr-KKAL-acid] (Myristoyl-KKAL-OH)	≤ 100	increase fibroblast proliferation
CCCCCCCCCCCCCC(=O)N[C@@H](CCCCN)C(=O)N[C@@H](CC(C)C)C(=O)N[C@@H](C)C(=O)N[C@@H](CCCCN)C(=O)N[C@@H](CCCCN)C(=O)N[C@H](CC(C)C)C(N)=O [P396, Myr-KLAKK-[L]^D-amide] (Myristoyl-KLAKK[dL]-NH2)	≤ 100	increase fibroblast proliferation
CCCCCCCCCCCCCC(=O)N[C@@H](C)C(=O)N[C@@H](Cc1c[nH]cn1)C(=O)N[C@@H](CCCNC(=N)N)C(N)=O [P322, Myr-AHR-amide] (Myristoyl-Ala-His-Arg-NH2)	≤ 100	increase fibroblast proliferation
CCCCCCCCCCCCCC(=O)NCC(=O)NCC(=O)N[C@@H](CCCCN)C(=O)N[C@@H](CCCNC(=N)N)C(N)=O [P399, Myr-GGKR-amide] (Myristoyl-GGKR-NH2)	≤ 100	increase fibroblast proliferation
CCCCCCCCCCCCCC(=O)NCC(=O)N[C@@H](CCCCN)C(=O)N[C@@H](CCCCN)C(=O)N[C@@H](C)C(=O)N[C@@H](CC(C)C)C(=O)N[C@H](CCCCN)C(N)=O [P404, Myr-GKKAL-[K]^D-amide] (Myristoyl-GKKAL[dK]-NH2)	≤ 100	increase fibroblast proliferation
CCCCCCCCCCCCCC(=O)N[C@@H](CCCNC(=N)N)C(=O)N[C@@H](CCCNC(=N)N)C(=O)N[C@@H](CCCNC(=N)N)C(N)=O [P342, Myr-RRR-amide] (Myristoyl-Arg-Arg-Arg-NH2)	≤ 100	increase fibroblast proliferation

The next lines start with results.

MIC(P. cepacia) [2] [ppm]	Structure (SMILES)	increase fibroblast proliferation (qualitative) [1]
≤ 100	CCCCCCCCCCCCCC(=O)N[C@@H](CCCCN)C(=O)N[C@H](C(=O)N[C@H](C(=O)N[C@@H](CCCCN)C(=O)N[C@@H](CO)C(N)=O)[C@@H](C)O)[C@@H](C)O [P190, Myr-KTTKS-amide] (Myristoyl-KTTKS-NH2)	increase fibroblast proliferation
≤ 100	CCCCCCCCCCCCCC(=O)N[C@@H](CC(C)C)C(=O)N[C@@H](CCCCN)C(=O)N[C@@H](CCCCN)C(=O)N[C@@H](C)C(=O)N[C@@H](CC(C)C)C(=O)N[C@@H](CCCCN)C(N)=O [P296, Myr-LKKALK-amide] (Myristoyl-LKKALK-NH2)	increase fibroblast proliferation
≤ 100	CCCCCCCCCCCCCC(=O)N[C@@H](CCCCN)C(=O)N[C@@H](CCCCN)C(=O)N[C@@H](C)C(=O)N[C@@H](CC(C)C)C(=O)N[C@@H](CCCCN)C(=O)O [P349, Myr-KKALK-acid] (Myristoyl-KKALK-OH)	increase fibroblast proliferation
≤ 100	CCCCCCCCCCCCCC(=O)N[C@@H](CCCCN)C(=O)N[C@@H](CCCCN)C(=O)N[C@@H](CCCCN)C(=O)O [P348, Myr-KKK-acid]	increase fibroblast proliferation
≤ 100	CCCCCCCCCCCCCC(=O)N[C@@H](C)C(=O)N[C@@H](CCCCN)C(=O)N[C@@H](CCCCN)C(=O)NCC(=O)N[C@@H](CC(C)C)C(=O)N[C@H](CCCCN)C(N)=O [P402, Myr-AKKGL-[K]^D-amide] (Myristoyl-AKKGL[dK]-NH2)	increase fibroblast proliferation
≤ 100	CCCCCCCCCCCCCC(=O)N[C@@H](CCCCN)C(=O)N[C@@H](CCCCN)C(=O)NCC(=O)N[C@@H](CC(C)C)C(=O)N[C@@H](CCCCN)C(N)=O [P374, Myr-KKGLK-amide] (Myristoyl-KKGLK-NH2)	increase fibroblast proliferation
≤ 100	CCCCCCCCCCCCCC(=O)N[C@@H](CC(C)C)C(=O)N[C@@H](C)C(=O)N[C@@H](CCCCN)C(=O)N[C@@H](CCCCN)C(=O)O [P363, Myr-LAKK-acid] (Myristoyl-LAKK-OH)	increase fibroblast proliferation
≤ 100	CCCCCCCCCCCCCC(=O)N[C@@H](CCCCN)C(=O)N[C@@H](CCCCN)C(=O)N[C@@H](CO)C(=O)N[C@@H](CC(C)C)C(=O)N[C@H](CCCCN)C(N)=O [P395, Myr-KKSL-[K]^D-amide] (Myristoyl-KKSL[dK]-NH2)	increase fibroblast proliferation
≤ 100	CCCCCCCCCCCCCC(=O)N[C@@H](CCCCN)C(=O)N[C@@H](CCCCN)C(=O)NCC(=O)N[C@H](C(=O)N[C@H](CCCCN)C(N)=O)[C@@H](C)CC [P390, Myr-KKG1-[K]^D-amide] (Myristoyl-KKGI[dK]-NH2)	increase fibroblast proliferation
